The values below come from patent US11492359B2, “Near-infrared nerve-sparing fluorophores” (OREGON HEALTH & SCIENCE UNIVERSITY, priority 2018, dated 2022).

Series [1] deals with murine brachial plexus and sciatic nerves. The series can be described thus: Nerve-specificity screening using systemic administration. The conditions noted are these: for nerve specificity / nerve contrast (N/M vs control group) following systemic administration: IV, 200 nmol, 4 hours prior to imaging; for N/M and N/A ratios vs unstained control animals: systemic administration. It is filed as in vivo.

Series [2] can be described thus: UV-Vis absorption and fluorescence spectroscopy of the Oxazine library. It is filed as physicochemical. The following applies: for Extinction coefficient: Beer's Law plots; for Quantum yield: relative, references Oxazine 1, Oxazine 170, Rhodamine 101. Summed up:
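Absorbance measured at room temperature in 1-cm quartz cuvette, reference corrected; extinction coefficient from Beer's Law plots of absorbance vs concentration. Fluorescence spectra corrected for PMT response; relative quantum yields averaged over multiple measurements against Oxazine 1, Oxazine 170 and Rhodamine 101 references.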

For series [3], the system named is mouse brachial plexus nerves. The series can be described thus: Nerve imaging at depth under muscle tissue. It is filed as in vivo. Here is the method: Nerve imaging at depth studies using a model Oxazine derivative. Oxazine 4 and LGW01-08 were used to stain mouse brachial plexus nerves using both direct and systemic administration methods using the same dose and administration methods previously described. The ability to image the brachial plexus nerve at depth was assessed under varying thicknesses of mouse muscle tissue. Muscle tissue was resected from the peritoneal muscle layer and measured for thickness. One and two layers of resected peritoneal muscle tissue was placed over the stained nerves, providing one and two mm thick homogenous tissue through which the stained nerve tissue was imaged. The same muscle tissue was used to cover the stained nerves from both fluorophores with care taken to orient the muscle in the same way to ensure equivalent comparison. The imaging system configuration was changed to reflect the 700 nm channel in clinically relevant FGS systems (Tummers et al., Eur J Surg Oncol 40, 850-858 (2014); Troyan et al., Ann Surg Oncol 16, 2943-2952 (2009); Ashitate et al., The Journal of surgical research 176, 7-13 (2012); Verbeek et al., The Journal of urology 190, 574-579 (2013); Hillary et al., Langenbecks Arch Surg 403, 111-118 (2018); and Mery et al., Oncotarget 8, 109559-109574 (2017). For fluorescence excitation, the PhotoFluor II was filtered with a 650±22.5 nm bandpass excitation filter. The resulting fluorescence was collected with a 720±30 nm bandpass emission filter for image collection. Camera exposure times ranged from 0.025-4 s for fluorescence image collection.
Image analysis of intraoperative nerve contrast. Custom written MatLab code was used to analyze the tissue specific fluorescence where regions of interest (ROIs) were selected on the nerve, muscle and adipose tissue using the white light images, but blinded to the fluorescence images. These ROIs were then analyzed on the co-registered, matched fluorescence images permitting assessment of the mean tissue intensities as well as the nerve to muscle (N/M) and nerve to adipose (N/A) ratios. Fluorescence intensity measurements were divided by the exposure time to obtain normalized intensity per second measurements. Mean nerve to background tissue ratios (N/M and N/A) were calculated for each Oxazine derivative. For nerve imaging at depth image analysis, fluorescent line profiles and 3-D intensity topographical plots were generated in ImageJ using the plot profile and surface plot functions, respectively. The line profiles were background and exposure time corrected by dividing by the exposure time of each image and subtracting the average intensity of background pixels from the entire line profile. […]

Series [4] concerns murine brachial plexus and sciatic nerves. As to the kind of experiment: Nerve-specificity screening using direct/topical administration. Format: in vivo, mouse. The following applies: for nerve specificity (N/M contrast vs control group) via direct administration: 125 μM, imaged 30 minutes after staining; for N/M and N/A ratios vs unstained control animals: direct administration. On the procedure:
All reagents were purchased from Sigma Aldrich, Fisher Scientific, TCI, or Ark Pharm. Unless otherwise indicated, all commercially available starting materials were used directly without further purification. Analytical thin layer chromatography (TLC) was performed on Millipore ready-to-use plates with silica gel 60 (F254, 32-63 μm). Flash chromatography was performed on Sorbent Technologies silica gel for column chromatography or on a Biotage Isolera Flash System using SNAP Ultra cartridges. High-resolution mass spectra (HRMS) were measured on a ThermoElectron LTQ-Orbitrap high resolution mass spectrometer with a dedicated Accela HPLC system, or an Agilent 6244 time-of-flight LCMS with diode array detector VL+. LCMS and Purity Characterization Mass-to-charge ratio and purity of the Oxazine compounds were characterized on an Agilent 6244 time-of-flight tandem liquid chromatography mass spectroscopy (LCMS) with diode array detector VL+. Sample (10 μL) was injected into a C18 column (Poroshell 120, 4.6×50 mm, 2.7 micron), and eluted with a solvent system of A (H2O, 0.1% FA) and B (MeCN, 01.% FA) at 0.4 mL/min, from A/B=90/10 to 5/95 over 10 min, maintained at A/B=5/95 for additional 5 min. Ions were detected in positive ion mode by setting the capillary voltage at 4 kV and gas temperature at 350° C. Purity was calculated through area under the curve analysis of the absorbance at 254 nm. UV-Vis Absorption and Fluorescence Spectroscopy. UV-Vis spectra were collected with a Cary 50 UV-Vis spectrophotometer at room temperature, using a 1-cm quartz cuvette. Fluorescence spectra were collected on a Cary Eclipse fluorescence spectrophotometer (Agilent Technologies). All absorbance spectra were reference corrected. Extinction coefficient was calculated from Beer's Law plots of absorbance versus concentration. Fluorescence spectra were corrected for the wavelength dependent response of the R928 photomultiplier tube using a manufacturer generated correction file. Relative quantum yields are reported as the average of multiple measurements using multiple references, including Oxazine 1, Oxazine 170, and Rhodamine 101. Physicochemical Property Calculation. Physicochemical partition coefficients (Log D) values at pH 7.4, number of hydrogen bond donors and acceptors, polar surface area, and the number of rotatable bonds were calculated using Marvin and JChem calculator plugins (ChemAxon, Budapest, Hungary). Nerve-Specificity Screening using Direct/Topical Administration Each compound was screened for its tissue-specificity using a previously published direct/topical administration strategy in murine brachial plexus and sciatic nerves.^1 Each compound from the Oxazine library was formulated in the previously utilized co-solvent formulation (10% DMSO, 5% Kolliphor, 65% serum and 20% phosphate buffered saline) at 125 μM. 100 μL of the formulated Oxazine were incubated on the exposed brachial plexus or sciatic nerve for 5 minutes. The fluorophore containing solution was removed and the area was irrigated with saline 18 times to remove any unbound fluorophore. Co-registered fluorescence and color images were collected of each stained area 30 minutes after Oxazine direct/topical administration using a custom built macroscopic imaging system with 620/60 nm excitation and 700/75 nm bandpass emission filters. Custom written MatLab code was used to analyze the tissue specific fluorescence where regions of interest were selected on the nerve, muscle and adipose tissue using the white light images. These regions of interest were then analyzed on the co-registered matched fluorescence images permitting assessment of the nerve to muscle and nerve to adipose ratios in blinded manner. […]

The next series deals with swine peripheral nerves. As to the kind of experiment: Swine nerve imaging on da Vinci Si surgical system. It is filed as in vivo. The conditions noted are these: for nerve contrast against key surgical tissue classes (adipose, muscle, vasculature, peritoneal): laparoscopic; for SBR of buried nerve tissues: underlying peritoneal tissue and several millimeters of mixed adipose and muscle tissues, semi-quantitative. An excerpt: A custom-built laparoscopic imaging system also capable of real-time color and fluorescence imaging was used to acquire in vivo swine images and videos. The imaging system was integrated into the da Vinci Si surgical system (Intuitive Surgical, Sunnyvale, Calif.) and consisted of a Necsel Neon 5 W 640 nm laser (Necsel, Milpitas, Calif.) coupled to the da Vinci Si endoscope with a 642 nm StopLine single-notch blocking filter (Semrock, Rochester, N.Y.). The single-notch blocking filter was placed in the Si camera sterile adaptor between the rod lens endoscope and the Si camera head. Fluorescent signal acquisition occurred in the Si white light mode with the blocking filter removing the excitation light and the fluorescent signal detected primarily on the red, green, blue (RGB) red-Bayer elements of a modified Si endoscope camera head. Laser power at the endoscope tip measured 800 mW with the optical power loses occurring primarily at the laser fiber/light guide and the Si camera head/rod lens interfaces. Fluorescence and color videos were captured using the Si Vision side cart at an exposure time of 2 ms. Videos were recorded on a Panasonic HD-SDI recorder connected to the TilePro video out connections on the da Vinci Si Vision side cart. Video clips were edited in iMovie to crop their length and include text overlays. Screen captures of the in vivo video clips were collected and are presented as figures. Da Vinci Si imaging display algorithms apply non-linear gamma and color corrections to the collected video, and thus, while image quantification is possible to report what would be visible to surgeons intraoperatively, these values are only semi-quantitative and could vary from what is observed in a more controlled system.
Swine nerve imaging studies of Oxazine derivatives. LGW01-08 and LGW05-75 were administered via IV injection at a body surface area scaled dose from mice for swine nerve imaging studies (0.34 mg/kg) (Nair & Jacob, J Basic Clin Pharm 7, 27-31 (2016) and Sharma & McNeill, Br J Pharmacol 157, 907-921 (2009)). Nerves running along the body wall in the peritoneal cavity buried beneath 1-3 mm of fascia and adipose tissue were imaged using the previously described fluorescence enabled laparoscopic imaging system docked to the da Vinci Si Surgical System. Nerve contrast was monitored immediately following injection and up to 6 hours after systemic administration. Dissection and resection of the identified nerve structures was performed using the da Vinci system, where the resected tissues were fixed in formalin. The fixed tissues were sent to the OHSU Histopathology Shared Resource for paraffin embedding, sectioning and subsequent gold standard H&E staining.
Image analysis of intraoperative nerve contrast. Custom written MatLab code was used to analyze the tissue specific fluorescence where regions of interest (ROIs) were selected on the nerve, muscle and adipose tissue using the white light images, but blinded to the fluorescence images. These ROIs were then analyzed on the co-registered, matched fluorescence images permitting assessment of the mean tissue intensities as well as the nerve to muscle (N/M) and nerve to adipose (N/A) ratios. Fluorescence intensity measurements were divided by the exposure time to obtain normalized intensity per second measurements. Mean nerve to background tissue ratios (N/M and N/A) were calculated for each Oxazine derivative. For nerve imaging at depth image analysis, fluorescent line profiles and 3-D intensity topographical plots were generated in ImageJ using the plot profile and surface plot functions, respectively. The line profiles were background and exposure time corrected by dividing by the exposure time of each image and subtracting the average intensity of background pixels from the entire line profile. […] In addition, non-uniform tissue surfaces, variable endoscope-tissue positioning, and vignetting add further complications to resolving tissue-level SBRs.

For the next series, the system named is nerve and muscle tissue. The series can be described thus: Ex vivo tissue staining nerve-specificity screening. The text has this:
Oxazine derivative library nerve-specificity screening. All 64 Oxazine derivatives were screened for nerve specificity using a previously described ex vivo tissue staining assay (Gibbs, S. L., et al., PloS one 8, e73493 (2013)). Ex vivo nerve and muscle tissue fluorescence intensities varied, with many compounds showing minimal nerve or muscle tissue fluorescence above control autofluorescence following Oxazine derivative staining. […] All Oxazine derivatives were further screened for nerve-specificity in vivo using both direct and systemic administration strategies. The direct administration strategy enabled quantification of nerve-specificity and contrast following fluorophore contact with the nerves and surrounding tissues without the requirement of BNB penetration, providing the most similar comparison to ex vivo nerve-specificity screening. The systemic administration screening studies required not only nerve specificity, but also adequate biodistribution and BNB penetration to generate SBR for visualization.

As to `CCNc1cc2oc3cc(=[N+](CC)CC)ccc-3nc2cc1C` [LGW01-08, N-ethyl-N-(7-(ethylamino)-8-methyl-3H-phenoxazin-3-ylidene)ethanaminium], in series [1], the “nerve specificity / nerve contrast (N/M vs control group) following systemic administration” value was “high nerve specificity”; the “N/M and N/A ratios vs unstained control animals” value (“N/M and N/A ratios” for short) is “significantly higher N/M and N/A ratios than unstained control animals”. Moreover, in series [2], the “Max Abs” value is 638 nm, the “Max Em” value is on record as 659 nm, the “Max Ex” value is given as 640 nm and the Extinction coefficient is 78650 M⁻¹ cm⁻¹. Further, in series [2], the Quantum yield is given as 5.68%. For the same compound, the “width of smallest nerve branches distinguished under muscle tissue” value in series [3] (direct administration, under 1 mm of muscle tissue) was around 200 μm. In addition, the “thickness of muscle tissue under which nerve tissue could be identified” value in series [3] (following both systemic and direct administration, 700 nm channel filters) is recorded as “up to 2 mm”. In series [4], the “nerve specificity (N/M contrast vs control group) via direct administration” value is listed as “high nerve specificity”; the “N/M and N/A ratios” value was “significantly higher N/M and N/A ratios than unstained control animals”. Besides, the “time post-injection at which signal approached background levels” value with swine peripheral nerves (swine, IV 0.34 mg/kg) is around 4 h. In addition, in the series with swine peripheral nerves (swine), the “nerve contrast against key surgical tissue classes (adipose, muscle, vasculature, peritoneal)” value was “positive nerve contrast” and the “SBR of buried nerve tissues” value is around 1.5. In the series on swine peripheral nerves (systemic administration), the “faster time to positive N/A and N/M fluorescence compared to current visible-emissive agents” value is on record as 2-6 fold; the “time post-injection to nerve signal / strong nerve contrast” value came out at 20 min.
Turning to `CC/N=c1/cc2oc3cc4c(cc3nc-2cc1C)OCCN4CC` [LGW05-75, (Z)—N-(4-ethyl-9-methyl-3,4-dihydro-[1,4]oxazino[2,3-b]phenoxazin-8(2H)-ylidene)ethanaminium], in series [1], the “nerve specificity / nerve contrast (N/M vs control group) following systemic administration” value is given as “high nerve specificity”; the “N/M and N/A ratios” value was “significantly higher N/M and N/A ratios than unstained control animals”. Also, in series [2], the “Max Abs” value came to 638 nm, the “Max Em” value is reported as 659 nm, the “Max Ex” value was found to be 640 nm and the Extinction coefficient worked out at 57360 M⁻¹ cm⁻¹. In addition, the Quantum yield in series [2] is 31.70%. Besides, in series [4], the “nerve specificity (N/M contrast vs control group) via direct administration” value is given as “high nerve specificity”; the “N/M and N/A ratios” value is “significantly higher N/M and N/A ratios than unstained control animals”. For the same compound, in the series with swine peripheral nerves (swine, IV 0.34 mg/kg), the “time after administration with strong nerve SBR” value is above 4.5 h and the “time required for sufficient background tissue clearance” value was around 1.5 h. In the series with swine peripheral nerves (swine), the “nerve contrast against key surgical tissue classes (adipose, muscle, vasculature, peritoneal)” value was “positive nerve contrast” and the “SBR of buried nerve tissues” value was around 1.5.
For the compound `CN(C)c1ccc2nc3ccc(=[N+](C)C)cc-3oc2c1` [LGW01-39, N-(7-(dimethylamino)-3H-phenoxazin-3-ylidene)-N-methylmethanaminium], in series [2], the “Max Abs” value is 648 nm, the “Max Em” value was 667 nm, the “Max Ex” value turned out to be 650 nm and the Extinction coefficient was 76144 M⁻¹ cm⁻¹. This compound also gave a Quantum yield in series [2] of 9.56%. Also, the “ex vivo nerve specificity (N/M SBR vs unstained control group)” value in the series on nerve and muscle tissue is “significantly higher N/M SBR compared to the unstained control group”.
